# From patent US8003357B2, “Acidophilic enzymes” (Helmholtz-Zentrum Fuer Infektionsforschung GmbH, priority 2005, dated 2011)
# Assays:
# EstFA = EstFA (Ferroplasma acidiphilum, UniProt Q2PCE5); experiment: Enantioselectivity of EstFA towards chiral esters and lactones; assay type: biochemical; conditions: for % c / % e.e.: 100 mM citrate buffer pH 2.0, 5 μg EstFA, 10 hours; for E: enantioselectivity
# Protocol: For an estimation of enantioselectivity of EstFA towards chiral esters and lactones, a number of primary and secondary alcohols as well as carboxylic acids and lactones were hydrolysed.
# The above substrate specificities were tested in 96-well plates, using 100 mM citrate buffer (pH 2.0) in the presence of 5 μg pure EstFA. For the substrate, the concentrations between 10 nM and 10 mM were chosen. Progress of the reaction was followed by spectrophotometry using p-nitrophenol propionate as an indicator. The reaction was stopped after 10 hours by adjusting the pH to 8.0 by adding sodium hydroxide from a 100 mM stock solution and phenol red (0.8 mM) as a pH indicator. […] Ester hydrolysis of enantiomerically pure esters was measured colorimetrically in 5.0 mM EPPS buffer (N-(2-hydroxyethyl) piperazine-N′-(3′-propanesulfonic acid) at pH 8.0 and phenol red after termination of the reaction.
# EstFA (acidic esterase) = experiment: Effect of cations and inhibitors on recombinant EstFA activity; assay type: biochemical, Ferroplasma acidiphilum; set-up: substitution of Fe^2+ in EstFA: dose or concentration left out as unconfirmed; conditions: for substitution of Fe^2+ in EstFA: as chloride salts
# Protocol: The enzymes used for the tests were heterologously expressed in E. coli using genomic coding sequences obtained from Ferroplasma acidiphilum.
# (§1) The acidic enzymes according to the invention were expressed in E. coli using the genomiccoding sequence for the respective enzyme from Ferroplasma acidiphilum, which are described in detail below. For enzymatic conversions, reaction conditions were in 100 mM sodium acetate buffer, 100 mM citrate buffer, 100 mM HEPES buffer for 2 minutes at 30° C., using p-nitrophenol propionate as the substrate for esterase, starch in the case of glycosidases, and HindIII digested λ DNA for ligase.
# LigFA (acidic ligase) = experiment: Effect of cations and inhibitors on recombinant LigFA activity; assay type: biochemical, Ferroplasma acidiphilum
# Protocol: as §1, with “The enzymes used for the tests were heterologously expressed in E. coli using genomic coding sequences obtained from Ferroplasma acidiphilum. The” for “The”
# [1] = system: αGluFA (acidic glucosidase); experiment: Effect of cations and inhibitors on recombinant αGluFA activity; assay type: biochemical, Ferroplasma acidiphilum
# Protocol: as §1, with “The enzymes used for the tests were heterologously expressed in E. coli using genomic coding sequences obtained from Ferroplasma acidiphilum. The” for “The”
# αGluFA = αGluFA (Ferroplasma acidiphilum, UniProt Q5K3Q3); experiment: Hydrolysis of glycosidic substrates by αGluFA; assay type: biochemical; conditions: pH 3.0, 50° C., 100 μM FeCl2
# Protocol: A variety of glycosidic substrates were examined for hydrolysis by αGluFA and kinetic constants were determined. For the assay, heterologously expressed αGluFA was incubated in 100 mM sodium citrate buffer, pH 3.0, containing 1% substrate, 100 μM FeCl2 and 5 μg αGluFA. […] Analysis was done by HPLC. Sample blanks were used for correction of spontaneous release of reducing sugar.
# As substrates, sucrose, starch, amylose, amylopectin, pullulan and dextrin were used, the release of reducing sugars could also be determined by the dinitrosalicylic acid method, i.e. adding dinitrosalicylic acid solution to the reaction mixture, heating to 85° C. for 30 minutes, dilution with water and measuring absorbance at 450 nm. Activity towards p-nitrophenol α/β diglucopyranoside could be measured spectrophotometrically by following the absorbance at 346 nm using a molar extinction coefficient of 4800.
# Chain of αGluFA (Q5K3Q3 entry or part of it): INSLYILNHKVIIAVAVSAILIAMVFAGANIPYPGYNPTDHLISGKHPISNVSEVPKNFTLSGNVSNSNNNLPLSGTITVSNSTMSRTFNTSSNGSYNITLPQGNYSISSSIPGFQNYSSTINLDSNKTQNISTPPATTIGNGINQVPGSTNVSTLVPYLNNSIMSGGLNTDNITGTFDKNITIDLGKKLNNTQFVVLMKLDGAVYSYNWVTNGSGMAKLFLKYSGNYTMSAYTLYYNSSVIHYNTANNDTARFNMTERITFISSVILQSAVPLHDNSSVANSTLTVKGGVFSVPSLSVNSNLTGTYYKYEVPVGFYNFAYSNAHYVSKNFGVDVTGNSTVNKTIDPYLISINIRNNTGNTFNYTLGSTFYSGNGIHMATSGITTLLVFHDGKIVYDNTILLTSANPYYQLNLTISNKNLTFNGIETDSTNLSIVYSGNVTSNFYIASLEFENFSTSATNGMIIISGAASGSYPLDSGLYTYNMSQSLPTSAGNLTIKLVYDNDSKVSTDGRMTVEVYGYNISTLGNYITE
# Chain of EstFA (Q2PCE5 entry or part of it): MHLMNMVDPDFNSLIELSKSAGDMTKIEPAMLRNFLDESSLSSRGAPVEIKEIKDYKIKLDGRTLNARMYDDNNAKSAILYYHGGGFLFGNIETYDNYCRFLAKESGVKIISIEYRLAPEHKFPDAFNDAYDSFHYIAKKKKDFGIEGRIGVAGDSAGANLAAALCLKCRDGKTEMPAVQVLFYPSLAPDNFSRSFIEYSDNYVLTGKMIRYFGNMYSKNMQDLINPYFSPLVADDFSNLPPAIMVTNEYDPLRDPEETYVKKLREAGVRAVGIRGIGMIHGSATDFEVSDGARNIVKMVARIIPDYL
compound,measurement,setting,value
CCCC(=O)OC(C)c1ccccc1 (centres unmarked) [1-phenyl ethylbutyrate],% c,EstFA,36.2%
same,% e.e.,EstFA,33.7%
same,E,EstFA,2.4
[Ca+2] [Ca^2+],Activity (%) EstFA,EstFA (acidic esterase); additive 10 mM,116.3%
same,Activity (%) EstFA,EstFA (acidic esterase); additive 125 mM,100.8%
same,substitution of Fe^2+ in EstFA,EstFA (acidic esterase),could not substitute Fe^2+
same,Activity (%) LigFA,LigFA (acidic ligase); additive 10 mM,126.2%
same,Activity (%) LigFA,LigFA (acidic ligase); additive 125 mM,81.6%
same,Activity (%) αGluFα,[1]; additive 10 mM,91.2%
same,Activity (%) αGluFα,[1]; additive 125 mM,74.1%
[Co+2] [Co^2+],Activity (%) EstFA,EstFA (acidic esterase); additive 10 mM,55.2%
same,Activity (%) EstFA,EstFA (acidic esterase); additive 125 mM,68.3%
same,substitution of Fe^2+ in EstFA,EstFA (acidic esterase),could not substitute Fe^2+
same,Activity (%) LigFA,LigFA (acidic ligase); additive 10 mM,102.5%
same,Activity (%) LigFA,LigFA (acidic ligase); additive 125 mM,88.7%
same,Activity (%) αGluFα,[1]; additive 10 mM,72.0%
same,Activity (%) αGluFα,[1]; additive 125 mM,82.8%
O=C(O)CN(CCN(CC(=O)O)CC(=O)O)CC(=O)O [EDTA],effect of complexing Fe^2+ on EstFA activity,EstFA (acidic esterase); added EDTA,inhibited the activity of EstFA in a reversible manner
same,Activity (%) EstFA,EstFA (acidic esterase); additive 10 mM,16.0%
same,Activity (%) EstFA,EstFA (acidic esterase); additive 125 mM,9.5%
same,Activity (%) LigFA,LigFA (acidic ligase); additive 10 mM,17.2%
same,Activity (%) LigFA,LigFA (acidic ligase); additive 125 mM,7.0%
same,Activity (%) αGluFα,[1]; additive 10 mM,10.6%
same,Activity (%) αGluFα,[1]; additive 125 mM,9.4%
[K+] [K^+],Activity (%) EstFA,EstFA (acidic esterase); additive 10 mM,108.5%
same,Activity (%) EstFA,EstFA (acidic esterase); additive 125 mM,115.7%
same,Activity (%) LigFA,LigFA (acidic ligase); additive 10 mM,129.9%
same,Activity (%) LigFA,LigFA (acidic ligase); additive 125 mM,93.8%
same,Activity (%) αGluFα,[1]; additive 10 mM,86.0%
same,Activity (%) αGluFα,[1]; additive 125 mM,76.3%
[Li+] [Li^+],Activity (%) EstFA,EstFA (acidic esterase); additive 10 mM,100.2%
same,Activity (%) EstFA,EstFA (acidic esterase); additive 125 mM,48.0%
same,Activity (%) LigFA,LigFA (acidic ligase); additive 10 mM,101.6%
same,Activity (%) LigFA,LigFA (acidic ligase); additive 125 mM,107.9%
same,Activity (%) αGluFα,[1]; additive 10 mM,107.2%
same,Activity (%) αGluFα,[1]; additive 125 mM,69.4%
[Mg+2] [Mg^2+],Activity (%) EstFA,EstFA (acidic esterase); additive 10 mM,106.1%
same,Activity (%) EstFA,EstFA (acidic esterase); additive 125 mM,116.8%
same,substitution of Fe^2+ in EstFA,EstFA (acidic esterase),could not substitute Fe^2+
same,Activity (%) LigFA,LigFA (acidic ligase); additive 10 mM,157.0%
same,Activity (%) LigFA,LigFA (acidic ligase); additive 125 mM,126.8%
same,Activity (%) αGluFα,[1]; additive 10 mM,92.2%
same,Activity (%) αGluFα,[1]; additive 125 mM,64.7%
N [NH4^+],Activity (%) EstFA,EstFA (acidic esterase); additive 10 mM,85.2%
same,Activity (%) EstFA,EstFA (acidic esterase); additive 125 mM,97.1%
same,Activity (%) LigFA,LigFA (acidic ligase); additive 10 mM,107.2%
same,Activity (%) LigFA,LigFA (acidic ligase); additive 125 mM,108.2%
same,Activity (%) αGluFα,[1]; additive 10 mM,103.8%
same,Activity (%) αGluFα,[1]; additive 125 mM,58.8%
[Na+] [Na^+],Activity (%) EstFA,EstFA (acidic esterase); additive 10 mM,102.8%
same,Activity (%) EstFA,EstFA (acidic esterase); additive 125 mM,91.2%
same,Activity (%) LigFA,LigFA (acidic ligase); additive 10 mM,71.1%
same,Activity (%) LigFA,LigFA (acidic ligase); additive 125 mM,100%
same,Activity (%) αGluFα,[1]; additive 10 mM,86.3%
same,Activity (%) αGluFα,[1]; additive 125 mM,74.0%
CCCCCCCCCCCCOS(=O)(=O)[O-].[Na+] [SDS],Activity (%) EstFA,EstFA (acidic esterase); additive 10 mM,75.2%
same,Activity (%) EstFA,EstFA (acidic esterase); additive 50 mM,47.3%
same,Activity (%) LigFA,LigFA (acidic ligase); additive 10 mM,32.6%
same,Activity (%) LigFA,LigFA (acidic ligase); additive 50 mM,27.5%
same,Activity (%) αGluFα,[1]; additive 10 mM,2.4%
same,Activity (%) αGluFα,[1]; additive 50 mM,0.5%
[Sr+2] [Sr^2+],Activity (%) EstFA,EstFA (acidic esterase); additive 10 mM,102.1%
same,Activity (%) EstFA,EstFA (acidic esterase); additive 125 mM,106.5%
same,Activity (%) LigFA,LigFA (acidic ligase); additive 10 mM,90.7%
same,Activity (%) LigFA,LigFA (acidic ligase); additive 125 mM,20.2%
same,Activity (%) αGluFα,[1]; additive 10 mM,98.0%
same,Activity (%) αGluFα,[1]; additive 125 mM,71.3%
[Zn+2] [Zn^2+],Activity (%) EstFA,EstFA (acidic esterase); additive 10 mM,57.8%
same,Activity (%) EstFA,EstFA (acidic esterase); additive 125 mM,4.6%
same,Activity (%) LigFA,LigFA (acidic ligase); additive 10 mM,5.3%
same,Activity (%) LigFA,LigFA (acidic ligase); additive 125 mM,10.2%
same,Activity (%) αGluFα,[1]; additive 10 mM,1.1%
same,Activity (%) αGluFα,[1]; additive 125 mM,16.2%
COC(=O)[C@H](C)N [alanine methylester],% c,EstFA,8.71%
same,% e.e.,EstFA,2.5%
same,E,EstFA,3.8
O=C1CCC(CO)O1 (centres unmarked) [dihydro-5-hydroxymethyl-2(3H)-furanone],% c,EstFA,39.3%
same,% e.e.,EstFA,88.6%
same,E,EstFA,29.7
[Mn+2] [manganese],substitution of Fe^2+ in EstFA,EstFA (acidic esterase),could not substitute Fe^2+
CC(=O)OC1CC(C)CCC1C(C)C (centres unmarked) [menthyl acetate],% c,EstFA,42.2%
same,% e.e.,EstFA,78.4%
same,E,EstFA,14.7
OCCS [mercaptoethanol],Activity (%) EstFA,EstFA (acidic esterase); additive 1 mM,55%
COC(=O)C(C)O (centres unmarked) [methyl lactate],% c,EstFA,3.4%
same,% e.e.,EstFA,2.38%
same,E,EstFA,1.1
COC(=O)C(C)CO (centres unmarked) [methyl-3-hydroxy-2-methylpropionate],% c,EstFA,30.8%
same,% e.e.,EstFA,98%
same,E,EstFA,116.2
COC(=O)CC(C)O (centres unmarked) [methyl-3-hydroxybutyrate],% c,EstFA,26.2%
same,% e.e.,EstFA,98%
same,E,EstFA,42.8
[Cl][Ni][Cl] [nickel],substitution of Fe^2+ in EstFA,EstFA (acidic esterase),could not substitute Fe^2+
CC1(C)COC(=O)C1O (centres unmarked) [pantolactone],% c,EstFA,10.06%
same,% e.e.,EstFA,39.36%
same,E,EstFA,2.40
CCCC(=O)OCC1COC(C)(C)O1 (centres unmarked) [solketal butyrate],% c,EstFA,29.0%
same,% e.e.,EstFA,74.46%
same,E,EstFA,9.2
COC(=O)[C@@H](N)Cc1c[nH]c2ccccc12 [tryptophane methylester],% c,EstFA,4.33%
same,% e.e.,EstFA,2.12%
same,E,EstFA,1.1
Triton X-100,Activity (%) EstFA,EstFA (acidic esterase); additive 1%,74.6%
same,Activity (%) EstFA,EstFA (acidic esterase); additive 3%,43.5%
same,Activity (%) LigFA,LigFA (acidic ligase); additive 1%,62.3%
same,Activity (%) LigFA,LigFA (acidic ligase); additive 3%,9.0%
same,Activity (%) αGluFα,[1]; additive 1%,95.7%
same,Activity (%) αGluFα,[1]; additive 3%,47.4%
amylopectin,Kcat,αGluFA,89 ± 10.5 s⁻¹
same,Km,αGluFA,1.05 ± 0.19 mg/mL
amylose,Kcat,αGluFA,126.0 ± 7.5 s⁻¹
same,Km,αGluFA,7.49 ± 0.88 mg/mL
dextrin,Kcat,αGluFA,93.0 ± 11^ s^−1
same,Km,αGluFA,0.221 ± 0.03 mg/mL
pullulan,Kcat,αGluFA,2.8 ± 0.1 s⁻¹
same,Km,αGluFA,11.0 ± 0.1 mg/mL
soluble starch,Kcat,αGluFA,94.0 ± 11^ s^−1
same,Km,αGluFA,0.11 ± 0.02 mg/mL
